Experiment [1] has as its system SW-620 colorectal cancer cell line. The experiment can be described thus: MTT cell viability assay. It is filed as cell-based, human. As to conditions: for inhibition of SW-620 cancer cells viability: 10 µM, 24 h, MTT. On the procedure:
In the present investigation a new set of benzofuran–isatin hybrids (5a–e and 7a–i) was synthesised to be evaluated for their potential anticancer activity towards two human colorectal cancer cell lines, SW-620 and HT-29. […] Both, SW-620 and HT-29 cells were treated with 10 µM of each compound for 24 h and the percent cell viability was calculated using MTT assay.
For this reason, compounds 5a and 5d were pursued for further studies. Starting with determination of IC50s and cytotoxic selectivity studies. Serial concentrations of compounds 5a and 5d were used to examine their impact on cell viability using MTT protocol. Results of concentration vs percent viability were charted, and the IC50 was calculated for SW-620 and HT-29 cell lines using Graph Pad prism 8 (Figure 4). […]
[(Ti-Tz)/Tz] x 100 for concentrations for which Ti<Tz […]
SW620 and HT29 colorectal cancer cell lines and HFF-1 fibroblast (ATCC, Rockville, USA) were used. HT29 cells were cultured and maintained in Dulbecco’s Modified Eagles Medium (DMEM) (GIBCO, by Thermo Fischer Scientific, NY, USA) supplemented with 10% fetal bovine serum (FBS), 100 units/mL penicillin, and 100 μg streptomycin. SW620 and HFF-1 cells were cultured in Roswell Park Memorial Institute medium (RPMI-1640) (GIBCO, by Thermo scientific, NY, USA) supplemented with 10% FBS and 1% penicillin and streptomycin (Napolitano et al., 2015). All cultures were incubated at 37 °C and humidified atmosphere of 5% […]
2.3. Cell Viability Assay
The cytotoxicity effect of compounds on the colorectal cancer cell lines, SW620 and HT29 in addition to the normal human fibroblasts was measured by MTT (3-(4, 5-dimethylthiazol-2-yl)-2,5-diphenyltetrazolium bromide) (Sigma-Aldrich, St. Louis, MO, USA) as previously described. Briefly, cells were seeded in 96 well culture plates at 5000/well for HT29 and 10,000/well for SW620 for 24 h. Cells were then incubated with different compounds from WAG1 series (1-15) 24h at 37 °C and humidified 5% CO2 incubator. Freshly prepared 10 μl of 3-(4,5-dimethylthiazol-2-yl)-2,5-diphenyltetrazolium bromide (MTT 5 mM) solution were added to the cells and further incubated for 2 h. Thereafter, 100 μl of dimethyl sulfoxide (DMSO) were added in each well and the crystals were dissolved through careful pipetting. In certain experiment, cells were treated different concentration of 5FU for 72 h. The absorbance of the product was measured at 540 nm using a Synergy™ 2 multi-mode microplate reader (Biotech, VA, USA). The experiments were performed in triplicate for each condition. […]
The total protein concentration was evaluated by the colorimetric
Bradford protein assay (BIO-RAD inc, CA, USA) at 595 nm absorbance. Lysates were loaded in […]
In general terms: Tetrazolium assays rely on reduction of a dye to a coloured formazan, in cell work by metabolically active cells.

A further experiment relates to SW-620 cells. The experiment can be described thus: Annexin V-FITC/propidium iodide apoptosis assay. It is filed as cell-based, human. To be noted: for total increase in apoptosis vs control untreated cells: 24 h; for induction of apoptosis (in words): SW-620, 5 and 10 µM; for total increase in apoptosis vs control untreated cells, range: SW-620, over the concentrations 5 and 10 µM. On the procedure: Further investigation for compounds 5a and 5d concerning their potential role of apoptosis induction, using Annexin V-FITC/PI double staining assay, was performed to evaluate their impact on both early and late apoptosis percentages in SW-620 cancer cell lines (Figure 6). […] As shown, compound 5a induced approximately 1.7-folds and 3.8-folds total increase in apoptosis at concentration of 5 µM and 10 µM, respectively, in comparison to the control untreated SW-620 cell line (Figure 6(A)).
Figure 6. (A) AnnexinV/PI apoptosis assay for compound 5a. Tow concentrations (5 and 10 µM) of compound 5a, in addition untreated plate as a control were used to test the apoptotic effect by using Annexin V/PI in SW-620 cell line. Cells were treated with the compound 5a for 24 h. (B) AnnexinV/PI apoptosis assay for compound 5d. Tow concentrations (5 and 10 µM) of compound 5d, in addition untreated plate as a control were used to test the apoptotic effect by using Annexin V/PI in SW-620 cell line. Cells were treated with the compound 5d for 24 h. […] Their printed values are 1.93%, 2.06%, 1.81% in panel A and 0.73%, 2.01%, 1.62% in panel B. […]
2.4. Measurement of Apoptosis by Annexin V-FITC/PI Assay
Induction of apoptosis was measured by Dead Cell Apoptosis Kit with Annexin V FITC and PI, for flow cytometry (Thermofischer scientific, OR, USA) according to the manufacturer’s instruction. SW620 cells were seeded in a 6-well plate (3 × 10^5 cells per well) and treated with the various compound for 24h. Both floating and adherent cells were harvested, pooled together, and incubated with Annexin V-FITC and PI for 15 min on ice in dark. The cells were analyzed by BD FACSCalibur™ cell analyzer (BD Biosciences, CA, USA) at an emission of 530 nm (FL1 channel) and >575 nm (FL3). […]

[2] abbreviates: Homo sapiens, SW-620, SW-620, MTT.

Usually IC50 stands for the midpoint of a concentration-inhibition curve. On to `Cc1c(C(=O)N/N=C2\C(=O)Nc3ccccc32)oc2ccccc12` [Compound 5a], for which, in experiment [1], the “inhibition of SW-620 cancer cells viability” value was 46%. Moreover, the IC50 amounted to 8.7 µM in experiment [1] (setting [2]) and 9.4 µM in experiment [1] (SW-620, MTT). Further, the “total increase in apoptosis vs control untreated cells” value with SW-620 cells (SW-620, 5 µM) was “approximately 1.7 folds”; in the experiment on SW-620 cells (SW-620, 10 µM) it was roughly 3.8 folds. For the same molecule, in the experiment with SW-620 cells, the “induction of apoptosis (in words)” value was “dose dependent induction of apoptosis”. Also, the “total increase in apoptosis vs control untreated cells, range” value in the experiment with SW-620 cells is listed as 1.7–3.8 folds.
With `COc1ccc2c(c1)/C(=N/NC(=O)c1oc3ccccc3c1C)C(=O)N2` [Compound 5d], in experiment [1], the “inhibition of SW-620 cancer cells viability” value is on record as “about 52%”. In addition, the IC50 in experiment [1] (setting [2]) was determined as 6.5 µM; in experiment [1] (SW-620, MTT) it was 9.8 µM. Besides, the “total increase in apoptosis vs control untreated cells” value with SW-620 cells (SW-620, 5 µM) is listed as roughly 2.9 folds; in the experiment on SW-620 cells (SW-620, 10 µM), roughly 3.8 folds. The “induction of apoptosis (in words)” value in the experiment with SW-620 cells is “dose dependent induction of apoptosis”. Also, in the experiment with SW-620 cells, the “total increase in apoptosis vs control untreated cells, range” value was 2.9–3.8 folds.

The record behind these values is article PMC8245078, “Development of novel benzofuran-isatin conjugates as potential antiproliferative agents with apoptosis inducing mechanism in Colon cancer” (Journal of Enzyme Inhibition and Medicinal Chemistry, 2021).
